From US6368788B1 (priority 1987, dated 2002)
Where two headings read alike, the source gives them in different places. Marks after values point to notes of the source that are not given here.

Experiments:
Staphylococcus aureus = experiment: Survival after Staphylococcus aureus peritonitis, therapeutic treatment 1 hour after challenge; type: in vivo, mice; settings: for Percentage Survivors: ip therapeutic 1 hour after challenge
Procedure: EXAMPLES 32-34, above, test substance (i.e., L-Glu-L-Trp alone or in combination with antibiotic, or antibiotic alone) was injected sc, ip, po one hour after the bacterial challenge.

[1] = Pelvic inflammatory diseases; type: in vivo, human
Procedure: Ninety-six female patients (96) were entered into a trial having a variety of different disorders, i.e., pelvic inflammatory diseases, cervicitis, vaginitis and various tubo-ovarian and adnexal abscesses. Forty-six patients (46) comprised the L-Glu-L-Trp treatment group, and 50 patients comprised a conventional treatment control group. L-Glu-L-Trp was administered daily im at a dose of 100 μg, or 1 μg/kg intranasally, on each of 5 consecutive days. Alternatively, 50 μg of L-Glu-L-Trp was injected intralymphatically on each of 5 consecutive days in conjunction with conventional therapy. […] Normalization of immune parameters was correlated with the observed clinical improvements.
Patients entered into Group 1 (aged 19-50) were separable into clinical subgroups as follows: Subgroup 1A, consisted of 18 patients having […] (body temperature 38-39° C.), and suppurative vaginal discharge after infected abortions performed outside hospitals (average age 24.4±4.2 years); Subgroup 1B, consisted of 16 patients with abdominal pains resulting from chronic nonspecific subfebrile (<38° C.) inflammatory disease of the fallopian tubes (average age 32.2±3.9 years; range of abortions in the patient population 2-8); and, Subgroup 1C consisted of 12 patients with inflammation of the fallopian tubes, (38% resulting from placement of an IUD in the uterus more than 4 years previously). […] Group 2 (control) was constituted of 50 patients (aged 18-44) presenting with analogous symptoms and diseases and the patients in this group were treated with traditional antibiotic therapy.
In all cases L-Glu-L-Trp was delivered im at a dose of 100 μg in 1 ml volume daily on each of five days.
Treatment A: Administered to patients in Group 1A: The course of L-Glu-L-Trp therapy was administered, remnants of fetal tissue were surgically removed, and an additional course of L-Glu-L-Trp therapy was administered.
Treatment B: Administered to patients in Group 1B: L-Glu-L-Trp therapy was administered immediately upon admission into the protocol.
Treatment C: Administered to patients in Group 1C: Infected uterine tissues were surgically removed, abdominal drainage was established, and L-Glu-L-Trp therapy was administered starting 2 days post-operatively.
Patients were evaluated by monitoring the following parameters before, during, and 5-7 days after therapy: i) clinical status of the patient (i.e., body temperature, abdominal pain, and physical examinations) and, ii) laboratory data (i.e., urinalysis, blood chemistry, and blood immunology). The following clinical chemistry values of the patients in Groups 1A, 1B, and 1C were all within the normal range before and after treatment: AST, ALT, creatinine, urea, glucose, protein, chloride, potassium, and sodium. […] Treatment with L-Glu-L-Trp reduced the latter serum markers, i.e., alkaline phosphatase fell to 62.71±5.67 ED/mL and bilirubin to 0.50±0.03 mg %.

Allogeneic skin grafts = experiment: Allogeneic skin grafts; design: species or system human; settings: in vivo
Procedure: L-Glu-L-Trp was administered to 17 patients receiving allogeneic skin grafts. 27 patients receiving similar grafts and conventional care served as the control group. L-Glu-L-Trp was administered im as a single daily injection of 50-100 μg on each of 5 consecutive days, or alternatively, intranasally at a dose of 1 μg/kg daily for 5 days. Graft rejection was manifest in 8 of the control patients.

Adult thymectomy = experiment: Adult thymectomy; design: species or system human; settings: in vivo
Procedure: A total of 12 thymectomized patients were treated with L-Glu-L-Trp. Prior to therapy, these individuals had experienced frequent serious infections including upper respiratory infections. L-Glu-L-Trp was administered in a single dose of 100 μg daily for 10 days and repeated every 4-6 months.

[2] = pooled Groups 1A-1C, After L-Glu-L-Trp Therapy
[3] = psoriasis Group 1, after L-Glu-L-Trp Therapy (n = 30)
[4] = psoriasis, after Combination L-Glu-L-Trp Therapy (n = 30)
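Throughout, for Patients with improvement: psoriasis patients, 30 per group, with disease activity tracked through laboratory and clinical measures, set against a group receiving traditional therapy alone.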
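Throughout, for Patients with significant improvement: psoriasis patients, 30 per group, with disease activity tracked through laboratory and clinical measures, set against a group receiving traditional therapy alone.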
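Throughout, for Patients with total recovery: psoriasis patients, 30 per group, with disease activity tracked through laboratory and clinical measures, set against a group receiving traditional therapy alone.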
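Throughout, for Shorter length of hospital stay vs Group 2: psoriasis patients, 30 per group, with disease activity tracked through laboratory and clinical measures, set against a group receiving traditional therapy alone.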

Substance: L-Glu-L-Trp
- Percentage Survivors (Staphylococcus aureus; 24 hours, Glu-Trp dose 0.01 μg/kg): 16.7%
- Percentage Survivors (Staphylococcus aureus; 24 hours, Glu-Trp dose 0.1 μg/kg): 5.6*† %
- Percentage Survivors (Staphylococcus aureus; 24 hours, Glu-Trp dose 1 μg/kg): 27.8† %
- Percentage Survivors (Staphylococcus aureus; 24 hours, Glu-Trp dose 10 μg/kg (alone or + Ampicillin)): 66.7* %
- Percentage Survivors (Staphylococcus aureus; 24 hours, Glu-Trp dose 100 μg/kg (alone or + Ampicillin)): 66.7* %
- Percentage Survivors (Staphylococcus aureus; 48 hours, Glu-Trp dose 0.01 μg/kg): 0%
- Percentage Survivors (Staphylococcus aureus; 48 hours, Glu-Trp dose 0.1 μg/kg): 0† %
- Percentage Survivors (Staphylococcus aureus; 48 hours, Glu-Trp dose 1 μg/kg): 5.6† %
- Percentage Survivors (Staphylococcus aureus; 48 hours, Glu-Trp dose 10 μg/kg (alone or + Ampicillin)): 38.9* %
- Percentage Survivors (Staphylococcus aureus; 48 hours, Glu-Trp dose 100 μg/kg (alone or + Ampicillin)): 55.6* %
- Percentage Survivors (Staphylococcus aureus; 72 hours, Glu-Trp dose 0.01 μg/kg): 0%
- Percentage Survivors (Staphylococcus aureus; 72 hours, Glu-Trp dose 0.1 μg/kg): 0%
- Percentage Survivors (Staphylococcus aureus; 72 hours, Glu-Trp dose 1 μg/kg): 0† %
- Percentage Survivors (Staphylococcus aureus; 72 hours, Glu-Trp dose 10 μg/kg (alone or + Ampicillin)): 16.7* %
- Percentage Survivors (Staphylococcus aureus; 72 hours, Glu-Trp dose 100 μg/kg (alone or + Ampicillin)): 33.3* %
- Survival (Staphylococcus aureus; ip, 1 hour after challenge): dose-response relationship between the amount of L-Glu-L-Trp administered ip and the survival of animals
- Alkaline phosphatase ([1]; after treatment): 62.71±5.67 ED/mL
- B-lymphocytes, % of normal ([1]; after treatment): ~55%
- Bilirubin ([1]; after treatment): 0.50±0.03 mg %
- Lymphocytes, % of normal ([1]; after treatment): about 81%
- T-lymphocytes, % of normal ([1]; after treatment): about 75%
- Clinical outcome ([1]; in vivo): alleviated pain, reduced fever, and decreased the duration of the medical treatment
- B-Lymphocytes: % of Normal Value [1, 2]: (55%)
- B-Lymphocytes: % of PBL [1, 2]: 11.09 ± 0.87 % of PBL
- B-Lymphocytes: No. [1, 2]: 0.27 ± 0.03* 10^9/L
- Blastogenic Response: % Lym blast w/Con A [1, 2]: 68.70 ± 5.32%
- Blastogenic Response: % Lym blast w/PHA [1, 2]: 37.22 ± 2.81 %
- IgA [1, 2]: 2.61 ± 0.33 g/L
- IgA % Normal Value [1, 2]: (137%)
- IgG [1, 2]: 13.73 ± 0.51 g/L
- IgG % Normal Value [1, 2]: (126%)
- IgM [1, 2]: 2.64 ± 0.36 g/L
- IgM % Normal Value [1, 2]: (176%)
- Lymphocytes: % Normal Value [1, 2]: (81%)
- Lymphocytes: % of PBL [1, 2]: 36.61 ± 1.32 % of PBL
- Lymphocytes: No. [1, 2]: 2.26 ± 0.12* 10^9/L
- Phagocytes: % PBL [1, 2]: 74.78 ± 2.35 % PBL
- T-Lymphocytes: % of Lym [1, 2]: 71.57 ± 1.76 % of Lym
- T-Lymphocytes: % of Normal Value [1, 2]: (75%)
- T-Lymphocytes: No. [1, 2]: 1.67 ± 0.09* 10^9/L
- Clinical outcome (Allogeneic skin grafts): prevented infectious complications and delayed graft rejection
- Clinical outcome (Adult thymectomy): reduction of infectious disorders
- Patients with improvement (10 days): 7%
- Patients with significant improvement (10 days): 60%
- Patients with total recovery (10 days): 33%
- Shorter length of hospital stay vs Group 2 (average): 4.2 days
- Decrease in erythema of skin eruptions sooner than controls (in vivo): 2.8 days
- Disappearance of psoriatic rash sooner than controls (in vivo): 7.1 days
- Earlier recovery of disease activity than conventional therapy (in vivo): 2 to 3 days
- C3 complement [3]: 926 ± 28.4 µg/mL
- Ceruloplasmin [3]: 366 ± 11.4 µg/mL
- Clotting time (citrated whole blood-recalcified) [3]: 141 ± 2.4
- FDP [3]: 23 ± 1.8 µg/mL
- Fibrinogen Concentration [3]: 3.4 ± 0.1 g/L
- Fibrinolytic Activity [3]: 200 ± 2.7 min
- Kaolin-Cephalin clotting time [3]: 58 ± 0.3
- Orosomucoid [3]: 829 ± 13.2 µg/mL
- PT [3]: 23 ± 0.2
- Prealbumin [3]: 357 ± 3.8 µg/mL
- Thrombotest [3]: 33 ± 0.5 units
- Transferrin [3]: 3.36 ± 0.08 µg/mL
- α2-macroglobulin [3]: 2.5 ± 0.01
- Number of Patients Having a Clinical Outcome as: Considerable Improvement (psoriasis Group 1, day 8-10): 18/30
- Number of Patients Having a Clinical Outcome as: Improvement (psoriasis Group 1, day 8-10): 2/30
- Number of Patients Having a Clinical Outcome as: No Improvement (psoriasis Group 1, day 8-10): 3/30
- Number of Patients Having a Clinical Outcome as: Recovery (psoriasis Group 1, day 8-10): 7/30
- Patients with Considerable Improvement (%) (psoriasis Group 1, day 8-10): (60%)
- Patients with Improvement (%) (psoriasis Group 1, day 8-10): (7%)
- Patients with No Improvement (%) (psoriasis Group 1, day 8-10): (10%)
- Patients with Recovery (%) (psoriasis Group 1, day 8-10): (23%)
- B-Lymphocytes [4]: 0.53 ± 0.02 ×10^9/L
- B-Lymphocytes % Normal Value [4]: (115%)
- IgA [4]: 138 ± 6.8
- IgA % Normal Value [4]: (140%)
- IgG [4]: 187 ± 1.9 mg/mL
- IgG % Normal Value [4]: (140%)
- IgM [4]: 193 ± 9.6
- IgM % Normal Value [4]: (152%)
- Leukocytes [4]: 9.0 ± 1.4 ×10^9/L
- Leukocytes % Normal Value [4]: (155%)
- Lymphocytes [4]: 2.5 ± 0.09 ×10^9/L
- Lymphocytes % Normal Value [4]: (144%)
- T-Lymphocytes [4]: 0.94 ± 0.07 ×10^9/L
- T-Lymphocytes % Normal Value [4]: (106%)
